In article PMC9189929, “Synthesis, Screening and Characterization of Novel Potent Arp2/3 Inhibitory Compounds Analogous to CK-666” (Frontiers in Pharmacology, 2022):
Values after ≈ are worked out from the molar mass of the structure shown.

Columns and labels:
[1] = tested on: MCF10A cells; assay: EdU incorporation / cell cycle progression screen in MCF10A cells; type: cell-based, human; details: for Outcome of EdU incorporation screen: 0.025 to 100 μM; for IC50: Homo sapiens, MCF-10A, 18 h treatment, rough values from Figure 1 graphs, read-out: IC50 (concentration required for 50% decrease of EdU-positive cells)
Procedure: For cell cycle progression using EdU, MCF10A cells were seeded in 384-well plates at a density of 800 cells per well. […] EdU from kit C10337 (ThermoFischer Scientific, Waltham, MA, United States) was then added to the cells at 10 μM and incubated for 2.5 h. Cells were fixed in 4% paraformaldehyde for 30 min at room temperature. Click-iT reaction was performed for 1 h at room temperature, protected from light, with 5 µM Alexa Fluor 488 azide in (100 mM Tris, 1 mM CuSO4, 50 mM Ascorbic Acid, pH 8.5). Nuclei were counterstained with Hoechst 33,342 (Thermo Fisher Scientific). Imaging and analysis were performed using the ImageXpress Micro XL High-Content Screening System (Molecular Devices LLC, San Jose, CA, United States). IC50 values were determined by sigmoidal curve fitting using GraphPad Prism six software.

[2] = tested on: B16-F1 cells; assay: Cell viability (MTS) of B16-F1 cells; type: cell-based, mouse; details: 100 μM, 4 h
Procedure: Cell viability was assessed using the CellTiter 96® AQueous One Solution Cell Proliferation kit (Promega) on a Multiscan Spectrum spectrophotometer (Thermo LifeSciences), with absorbance read at 490 nm.

[3] = molecular target: T1, Arp2/3 (Bos taurus, UniProt A7MB62+P61157); assay: Pyrene-actin polymerization assay; type: biochemical, bovine; details: 20 nM Arp2/3, 250 nM N-WASP VCA; for IC50: 1.5 μM actin (10% pyrenyl-labeled), read-out: IC50 of Arp2/3-mediated actin polymerization; for Arp2/3 inhibition reached at saturation: 1.5 μM actin
T1 construct: purchased Cytoskeleton, Inc
Procedure: Actin was purified from rabbit muscle and was pyrenyl-labeled ([Carlier et al., 1984]; [Malm, 1984]). Arp2/3 was from Cytoskeleton, Inc. VCA domain of N-WASP was purified as previously described ([Clainche et al., 2003]). Pyrene-actin polymerization assays were performed as previously ([Romero et al., 2007]). Briefly, CaATP-actin was converted into MgATP-actin in (5 mM Tris, 0.2 mM ATP, 0.1 mM CaCl2, 1 mM DTT, 1 mM MgCl2, and 0.2 mM EGTA, pH 7.6) and kept on ice for no more than 1 h. Actin polymerization was monitored in (5 mM Tris, 50 mM KCl, 0.2 mM ATP, 0.1 mM CaCl2, 1 mM DTT, 1 mM MgCl2, 0.2 mM EGTA, pH 7.6) in the presence of 2% DMSO alone or 2% DMSO containing the appropriated compound concentration. The increase in fluorescence of 10% pyrenyl-labeled actin was monitored using a Safas spectrofluorimeter (λexc = 366 nm, λem = 407 nm). The maximum rate of actin polymerization was derived from the maximum slope of the polymerization curve multiplied by [total polymer]/(RFUmax—RFUmin) [total polymer] is the total actin minus the critical concentration (0.1 μM) and RFU, Relative Fluorescence Unit. The maximum elongation rates of actin polymerization were plotted as a function of the concentration of the different compounds. For CK-666, 59, 69 and 71, curves were fitted with the following equation to determine the IC50. Mrate= Rmax−Rmax−Rmin/1+IC50/(Compound Conc.) where Mrate is the measured maximum rate of actin polymerization at a given compound concentration, Rmax is the maximum rate of actin polymerization with no compound, and Rmin is the maximum rate of actin polymerization at saturating concentration of compound.
The curve of compound 15 was fitted with a linear decay. The IC50 was determined at half inhibition of actin polymerization.

[4] = tested on: sea urchin embryos; parameters: method as in Sepúlveda-ramírez et al., 2018; details: 100 μM; ref Sepúlveda-ramírez et al., 2018; cited from earlier work
[5] = tested on: fish keratocytes; parameters: method as in Nolen et al., 2009; details: ref Nolen et al., 2009; cited from earlier work
[6] = tested on: Arp2/3; details: introduction statement, no reference given; read-out: IC50 of inhibition of Arp2/3 activation; cited from earlier work
[7] = tested on: sea urchin embryos; assay: Sea urchin embryo development assay; type: in vivo, Paracentrotus lividus; details: for Effect on archenteron elongation / Effect on primary mesenchyme cell (PMC) migration: observed up to four-arm mid-pluteus stage; for Minimum effective concentration, Inhibition of Archenteron elongation / Minimum effective concentration, Inhibition of Spicule formation: treated at zygote stage, monitored to four-arm pluteus
Procedure: The procedure was described in detail in [Semenova et al., 2018]. Briefly, adult sea urchins, Paracentrotus lividus L (Echinidae), were collected from the Mediterranean Sea on the Cyprus coast and kept in an aerated seawater tank. Gametes were obtained by intracoelomic injection of 0.5 M KCl. Eggs were washed with filtered seawater and fertilized by adding drops of diluted sperm. Embryos were cultured at room temperature under gentle agitation with a motor-driven plastic paddle (60 rpm) in filtered seawater. […] For treatment with test compounds, 5 ml aliquots of embryo suspension were transferred to six-well plates and incubated at a concentration of 1,000–2,000 embryos/ml. For images, sedimented embryos were concentrated in the center of the well by gentle rotation of the culture plate, and 200 μl aliquots containing several hundred embryos were used to take pictures (up to 20 images from different fields). Embryos selected for Figure 4 were representative of the population.
(§1) Stock solutions of compounds were prepared in DMSO at 50–250 mM concentration followed by a 10-fold dilution with 96% EtOH. This procedure enhanced the solubility of the test compounds in the salty seawater. Maximal tolerated concentrations of DMSO and EtOH in the assay were determined to be 0.05 and 1%, respectively. Higher concentrations of either DMSO (>0.1%) or EtOH (>1%) caused nonspecific alterations and retardation of the sea urchin embryo development independent of the treatment stage. Maximum solubility of compounds 15, 59, 69, and 71 was about 5–20 mM in seawater, since visible crystals formed at higher concentrations.
The effects were assessed after exposure of fertilized eggs (8–15 min post fertilization, 45–55 min before the first mitotic cycle completion) to 2-fold decreasing concentrations of the compound. Embryonic development was monitored until the beginning of active feeding at four-arm pluteus stage (33–36 h postfertilization). Developmental abnormalities were estimated quantitatively as minimal effective concentration (MEC), resulting in inhibition of archenteron elongation or skeletal spicule formation.

[8] = tested on: B16-F1 cells; assay: Wound healing (cell migration) of B16-F1 cells; type: cell-based, mouse
Procedure: For the wound healing, B16-F1 cells were seeded onto 8-well Ibidi dishes coated with laminin, and grown to confluence. Wounds in the cell monolayer were obtained by scratching the monolayer with a pipet tip. Detached cells were immediately washed away and new medium containing the various compounds was added. Cells were then used for videomicroscopy.
Videomicroscopy was performed on an inverted Axio Observer microscope (Zeiss) equipped with a Pecon Zeiss incubator XL multi S1 RED LS (Heating Unit XL S, Temp module, CO2 module, Heating Insert PS and CO2 cover), Definite focus module and a Hamamatsu camera C10600 Orca-R2. Phase contrast images were taken every 30 min for 24 h using the 10X/0.25 Plan-Apochromat air objective. For immunofluorescence, slides were observed and imaged with the 63X/1.4 Plan-Apochromat oil objective. Fluorophores were excited with the HBO 100 W lamp (Osram) installed in the HXP 120 Metal halide fluorescence light source (Zeiss).
(§2) Image analysis was performed in ImageJ or FIJI software. To measure wound healing, boundaries of the wound were drawn manually at different time points, then wound size was measured.

[9] = tested on: B16-F1 cells; assay: Lamellipodium formation in B16-F1 cells (cortactin immunofluorescence); type: cell-based, mouse
Procedure: Lyophilized compounds were resuspended with fresh DMSO from sealed vials (cell biology grade). Compounds, stored at +4°C, were used within a week. B16-F1 cells were seeded onto glass coverslips coated for 1 h with 25 μg/ml laminin (Sigma) in (50 mM Tris, 150 mM NaCl, pH 7.4). […] Cell were then processed for immunofluorescence.
Cells were fixed in 3.2% PFA on PBS, then quenched with 50 mM NH4Cl and permeabilised with 0.5% Triton X-100. After blocking in 2% BSA cells were incubated with antibodies (1–5 μg/ml for the primary, 5 μg/ml for the secondary). Total actin in cells was visualized by phalloidin staining. Nuclei were stained with 0.3 μg/ml DAPI (Roche). Coverslips were mounted in Dako Fluorescence Mounting Medium (Agilent). For immunofluorescence, ARPC2 rabbit polyclonal antibody (Millipore, 07–227), Cortactin mouse monoclonal 4F11 (Millipore, 05–180) were used. Secondary goat anti-mouse and anti-rabbit antibodies conjugated with Alexa Fluor 555 and 647 respectively were from Life Technologies. Phalloidin conjugated with Alexa Fluor 488 was from Tebu-bio.
as §2

[10] = Maximum solubility in seawater; type: physicochemical; details: saline or isotonic, kinetic from dmso stock, visible crystals formed at higher concentrations
Procedure: as §1

IC50 [3] [µM] | Arp2/3 inhibition reached at saturation [3] | Structure (SMILES) | Outcome of EdU incorporation screen [1] | IC50 [1] [µM] | Toxicity to B16-F1 cells (viability, MTS) [2] | Effect on archenteron elongation [7] | Effect on primary mesenchyme cell (PMC) migration [7] | Minimum effective concentration, Inhibition of Archenteron elongation [7] [µM] | Minimum effective concentration, Inhibition of Spicule formation [7] [µM] | further results
 |  | Cc1[nH]c2ccc(F)cc2c1CCNC(=O)c1cc(S(=O)(=O)N(C)C)c(Cl)cc1Cl [Compound 64, 2,4-Dichloro-5-[(dimethylamino)sulfonyl]-N-[2-(5-fluoro-2-methyl-1H-indol-3-yl)ethyl]benzamide] | scored positive | 6.66 | reduced the cell population by half or more |  |  |  |  | 
 |  | Cc1[nH]c2ccc(OC(F)(F)F)cc2c1CCNC(=O)c1ccc(S(=O)(=O)N(CCCl)CCCl)cc1 [Compound 52, 4-{[Bis(2-chloroethyl)amino]sulfonyl}-N-{2-[2-methyl-5-(trifluoromethoxy)-1H-indol-3-yl]ethyl}benzamide] | scored positive | 3.17 | reduced the cell population by half or more |  |  |  |  | 
23 | 78% | Cc1[nH]c2ccccc2c1CCNC(=O)c1ccccc1F [CK-666, 2-Fluoro-N-[2-(2-methyl-1H-indol-3-yl)ethyl]benzamide] |  | 56.3 |  | inhibited elongation of the archenteron at approximately half-size | altered PMC migration resulting in the lack of ventrolateral clusters and spicules | 50 | 25 | Effect on PMC migration and spiculogenesis [4]: alters proper migration of PMC and formation of ventrolateral clusters with ensuing inhibition of spiculogenesis; Inhibition of migration of fish keratocytes [5]: unable to inhibit the migration of fish keratocytes; IC50 [6]: ~50 µM; Developmental phenotype ([7]; 100 μM, 22°C): Defective gastrulation; Effect on cleavage and embryo spinning (antimitotic microtubule destabilizing effects) ([7]; up to 20–50 μM): did not affect cleavage and did not induce embryo spinning; Inhibition of wound healing ([8]; 100 µM): inhibits wound healing; Inhibition of lamellipodium formation ([9]; 100 μM, 1 h): blocked lamellipodium formation almost completely
180 | saturation was not reached | Cc1[nH]c2ccc(OCc3ccccc3)cc2c1CCNC(=O)c1cccc(Br)c1 [Compound 59, N-{2-[5-(Benzyloxy)-2-methyl-1H-indol-3-yl]ethyl}-3-bromobenzamide] | scored positive | 11.5 |  | inhibited elongation of the archenteron at approximately half-size | altered PMC migration resulting in the lack of ventrolateral clusters and spicules | 10 | 5 | solubility [10]: 5 to 20 µM (≈ 2.32 to 9.27 µg/mL); Cell rounding and detachment in wound healing assay ([8]; 25 µM): not observed; Cell rounding and detachment in wound healing assay ([8]; 100 µM): to a lesser extent 59 induced cell rounding followed by detachment from the substrate; Inhibition of cell migration (wound healing) compared with 100 µM CK-666 ([8]; compound at 25 µM): more active than CK-666; Dose-dependent inhibition of lamellipodium formation, potency relative to CK-666 ([9]; dose-dependent assay (Figure 2D)): slightly less active than CK-666
